Reference: patent US6150393A (priority 1999, dated 2000)

Assays:
[1] = DOI inhibition study in rats, oral administration of test compound (oral availability); type: in vivo, rat; settings: in vivo; rat; 50 mg/kg oral vs 10 mg/kg i.p., inferred from DOI test
Description: FIG. 6 provides a graphic summary of the effects of oral administration of 116082 and 116081 in a DOI inhibition study in rats. Values represent the mean±SEMs (n=6/group). #P<0.05 vs. vehicle/vehicle, *P<0.05 vs. vehicle/DOI, Student t-test.
Based upon the in vivo data developed, oral bioavailability of compounds […] was considered. The compounds were administered by oral gavage at a dose of 50 mg/kg, 30 min prior to DOI in rats (see Example 11A, supra). Animals were placed in the locomotor activity cages 10 min after DOI administration and activity was measured for 10 min. Results, presented in FIG. 6, provide total activity counts over the 10 min of exposure to the locomotor activity apparatus.

[2] = type: in vivo, rat (male Sprague-Dawley)
Description: FIG. 7 provides a graphic summary of the reversal of MK-801-induced hyperactivity using 116081 (7A) and clozapine (7B). […] 116081 produced a significant reversal of the effect of MK-801 at a dose of 25 μmol/kg (10 mg/kg). Results are presented as total activity counts over the 120 min of exposure to the locomotor activity apparatus after administration of MK-801. Data (mean±SEM) were analyzed by ANOVA followed by Dunnett's test (n=6-8/group).
Because part of the symptomatology of schizophrenia may be related to altered glutamate transmission at the NMDA receptor, the reversal of MK-801-induced hyperlocomotor activity in rodents has been used routinely as an animal model for detecting potential antipsychotic activity (O'Neill et al., Pharmacology Biochem. Behav., 63: 237-243, 1999). Thus, this test was used to determine potential antipsychotic properties of 116081 in vivo.
Motor activity was assessed using automated locomotor activity cages as described above (Example 11(A), supra.). Male Sprague-Dawley rats (250-350 g body weight) were administered test compounds (i.p.) and placed in the locomotor activity cages for 30 min of habituation. Following habituation,animals were administered MK-801 (0.5 μmol/kg=0.17 mg/kg, s.c.) and then immediately placed back into the locomotor activity cages, and activity was measured for 120 min. A reversal of MK-801-induced motor activity (as shown by a significant […] of ambulation) in rats is considered to be predictive of the ability of the test compound to reverse psychotic symptoms.

[3] = system: human 5HT2A receptor compared with human 5HT2C receptor; test: Selectivity for 5HT2A over 5HT2C receptor (as measured by IC50 values); type: binding

Cn1cc(Br)c(-c2cccc(NC(=O)Nc3ccc(Cl)cc3)c2)n1 [Compound 116081, N-[3-(4-bromo-1-methylpyrazol-3-yl)phenyl][(4-chlorophenyl)amino]carboxamide]
bioavailability [1]: ≥ 20% | efficacy in reversing motor activity induced by MK-801, compared with clozapine ([2]; FIGS. 7A and 7B): equiefficacious to the atypical antipsychotic clozapine | attenuation of MK-801-induced hyperactivity (ambulations) ([2]; i.p., total activity counts over 120 min after MK-801): dose-dependently attenuated MK801-induced hyperactivity | selectivity preference for the 5HT2A receptor compared with the 5HT2C receptor [3]: 100 fold
